Experimental data from paper PMC1976805, “Preclinical pharmacokinetics of benznidazole” (British Journal of Cancer, 1984).
Like-named read-outs stand apart in the source and are kept apart here.

Experiments:
plasma proteins = test: Binding to plasma proteins in vitro, mouse plasma (ultrafiltrate); type: in vitro ADME
Source text: Br. J. Cancer (1984), 50, 291-303 Preclinical pharmacokinetics of benznidazole P. Workman', R.A.S. White2, M.I. Walton', L.N. Owen2* & P.R. Twentyman' 1MRC Clinical Oncology and Radiotherapeutics Unit, MRC Centre, Hills Road, Cambridge CB2 2QH, and 2Department of Clinical Veterinary Medicine, University of Cambridge, Madingley Road, Cambridge CB3 OES, UK. […] We have investigated the detailed pharmacokinetics of benznidazole in mice, dogs and sheep to provide a data base for the estimation of doses required for chemosensitization in man. Pharmacokinetic behaviour was linear except at high doses in mice. Absorption was fairly rapid and bioavailability was complete following both i.p. administration in mice and oral administration in dogs. Elimination t4 values were longer than for MISO, being 90 min in mice, 4-5 h in sheep and 9-11 h in dogs. At doses giving linear kinetics, peak whole plasma concentrations per administered mgkg-1 were 0.75 jigml-1 for the i.p. route in mice and 1.8jugmlP' for the oral route in dogs. Though between 39 and 59% of plasma benznidazole was bound to protein, tissue penetration was generally good. Tissue/whole plasma ratios ranged from 59-99% for transplantable mouse tumours and from 14-70% for spontaneous dog neoplasms. Nervous tissue penetration was similar to that in tumours: brain/whole plasma ratios averaged between 61 and 76% in mice and 42% in dogs, while peripheral nerve/whole plasma ratios in dogs averaged 74%. […] Although benznidazole is used quite widely in South America to treat patients with the trypanosomal infection Chagas' disease or with mucotaneous Leishmaniasis (Barclay et al., 1978; Cerisola et al., 1978; Coura et al., 1978; Fava et al., 1978), apart from our preliminary studies (White et al., 1982) the only published data on its pharmaco- kinetics are for human plasma concentrations measured by polarography (Raaflub & Ziegler, 1979; Raaflub, 1980). Here we describe the pharmacokinetics of benznidazole in the mouse, sheep and dog, as determined by high-performance liquid chromatography (HPLC). […]

[1] = Tissue penetration in dogs bearing spontaneous neoplasms; type: in vivo, dog; conditions: for Kp: dog
Source text: Br. J. Cancer (1984), 50, 291-303 Preclinical pharmacokinetics of benznidazole P. Workman', R.A.S. White2, M.I. Walton', L.N. Owen2* & P.R. Twentyman' 1MRC Clinical Oncology and Radiotherapeutics Unit, MRC Centre, Hills Road, Cambridge CB2 2QH, and 2Department of Clinical Veterinary Medicine, University of Cambridge, Madingley Road, Cambridge CB3 OES, UK. […] We have investigated the detailed pharmacokinetics of benznidazole in mice, dogs and sheep to provide a data base for the estimation of doses required for chemosensitization in man. Pharmacokinetic behaviour was linear except at high doses in mice. Absorption was fairly rapid and bioavailability was complete following both i.p. administration in mice and oral administration in dogs. Elimination t4 values were longer than for MISO, being 90 min in mice, 4-5 h in sheep and 9-11 h in dogs. At doses giving linear kinetics, peak whole plasma concentrations per administered mgkg-1 were 0.75 jigml-1 for the i.p. route in mice and 1.8jugmlP' for the oral route in dogs. Though between 39 and 59% of plasma benznidazole was bound to protein, tissue penetration was generally good. Tissue/whole plasma ratios ranged from 59-99% for transplantable mouse tumours and from 14-70% for spontaneous dog neoplasms. Nervous tissue penetration was similar to that in tumours: brain/whole plasma ratios averaged between 61 and 76% in mice and 42% in dogs, while peripheral nerve/whole plasma ratios in dogs averaged 74%. Mean liver/whole plasma ratios were 42% and 71% in BALB/c and C3H/He mouse strains respectively. Only -5% of the administered dose was excreted unchanged in the urine, indicating the likelihood of extensive metabolism. […] Enhancement of CCNU response is likely to require circulating benznidazole concentrations of 10-30 pgml-1 and we predict that these will be obtained with oral doses of 6-20 mgkg- 1 in man. […] This enhancement, or chemosensitization, is usually greater than that seen in dose-limiting normal tissues, resulting in an improved therapeutic index. Because of the relatively high doses of MISO usually required for chemosensitization in mice (see above refs), and also because of its neurotoxicity in man (Dische et al., 1977), we have been interested in finding an improved chemosensitizer. […] The lipophilic ana- logue benznidazole (N-benzyl-(2-nitroimidazolyl) acetamide, Ro 07-1051; Radanil; Roche), the structure of which is shown in Figure 1, was selected for detailed study because of its ability to *Present address: Animal Health Trust, Small Animals Centre, Lanwades Park, Kennett, Newmarket, Suffolk CB8 7PN, UK. Correspondence: P. Workman. […] These findings have been confirmed independently by Siemann et al. (1983). Although benznidazole is used quite widely in South America to treat patients with the trypanosomal infection Chagas' disease or with mucotaneous Leishmaniasis (Barclay et al., 1978; Cerisola et al., 1978; Coura et al., 1978; Fava et al., 1978), apart from our preliminary studies (White et al., 1982) the only published data on its pharmaco- kinetics are for human plasma concentrations measured by polarography (Raaflub & Ziegler, 1979; Raaflub, 1980). Here we describe the pharmacokinetics of benznidazole in the mouse, sheep and dog, as determined by high-performance liquid chromatography (HPLC). […]

[2] = Penetration into brain and peripheral nerve in dogs; type: in vivo, dog; conditions: 25 mg kg-1 oral; for Kp: collie crossbred, 25 mg kg-1, two crossbred dogs; for Kp / Kp at 4 h / Kp at 1 h / Kp at 2 h / Kp at 3 h: dog, po
Source text: Br. J. Cancer (1984), 50, 291-303 Preclinical pharmacokinetics of benznidazole P. Workman', R.A.S. White2, M.I. Walton', L.N. Owen2* & P.R. Twentyman' 1MRC Clinical Oncology and Radiotherapeutics Unit, MRC Centre, Hills Road, Cambridge CB2 2QH, and 2Department of Clinical Veterinary Medicine, University of Cambridge, Madingley Road, Cambridge CB3 OES, UK. […] We have investigated the detailed pharmacokinetics of benznidazole in mice, dogs and sheep to provide a data base for the estimation of doses required for chemosensitization in man. Pharmacokinetic behaviour was linear except at high doses in mice. Absorption was fairly rapid and bioavailability was complete following both i.p. administration in mice and oral administration in dogs. Elimination t4 values were longer than for MISO, being 90 min in mice, 4-5 h in sheep and 9-11 h in dogs. At doses giving linear kinetics, peak whole plasma concentrations per administered mgkg-1 were 0.75 jigml-1 for the i.p. route in mice and 1.8jugmlP' for the oral route in dogs. Though between 39 and 59% of plasma benznidazole was bound to protein, tissue penetration was generally good. Tissue/whole plasma ratios ranged from 59-99% for transplantable mouse tumours and from 14-70% for spontaneous dog neoplasms. Nervous tissue penetration was similar to that in tumours: brain/whole plasma ratios averaged between 61 and 76% in mice and 42% in dogs, while peripheral nerve/whole plasma ratios in dogs averaged 74%. Mean liver/whole plasma ratios were 42% and 71% in BALB/c and C3H/He mouse strains respectively. Only -5% of the administered dose was excreted unchanged in the urine, indicating the likelihood of extensive metabolism. […] Enhancement of CCNU response is likely to require circulating benznidazole concentrations of 10-30 pgml-1 and we predict that these will be obtained with oral doses of 6-20 mgkg- 1 in man. […] This enhancement, or chemosensitization, is usually greater than that seen in dose-limiting normal tissues, resulting in an improved therapeutic index. Because of the relatively high doses of MISO usually required for chemosensitization in mice (see above refs), and also because of its neurotoxicity in man (Dische et al., 1977), we have been interested in finding an improved chemosensitizer. […] The lipophilic ana- logue benznidazole (N-benzyl-(2-nitroimidazolyl) acetamide, Ro 07-1051; Radanil; Roche), the structure of which is shown in Figure 1, was selected for detailed study because of its ability to *Present address: Animal Health Trust, Small Animals Centre, Lanwades Park, Kennett, Newmarket, Suffolk CB8 7PN, UK. Correspondence: P. Workman. […] These findings have been confirmed independently by Siemann et al. (1983). Although benznidazole is used quite widely in South America to treat patients with the trypanosomal infection Chagas' disease or with mucotaneous Leishmaniasis (Barclay et al., 1978; Cerisola et al., 1978; Coura et al., 1978; Fava et al., 1978), apart from our preliminary studies (White et al., 1982) the only published data on its pharmaco- kinetics are for human plasma concentrations measured by polarography (Raaflub & Ziegler, 1979; Raaflub, 1980). Here we describe the pharmacokinetics of benznidazole in the mouse, sheep and dog, as determined by high-performance liquid chromatography (HPLC). […] The Macmillan Press Ltd., 1984 292 P. WORKMAN et al. particularly on plasma and tumour concentrations, have been used as a basis for the estimation of the benznidazole doses required in a Phase I trial of benznidazole plus CCNU, at present ongoing in our Unit. Materials and methods Animals and tumours Adult inbred male BALB/c mice were obtained from OLAC (Southern) Ltd. (Bicester, UK) and adult inbred C3H/He mice of both sexes from OLAC and our own breeding colony. Mice were housed in plastic cages on sawdust bedding made from soft white woods, and allowed laboratory chow and water ad lib. They were used at 20-35 g body wt.

extent of binding to plasma proteins in vitro (plasma proteins; BALB/c mice): 38% | extent of binding to plasma proteins in vitro (plasma proteins; C3H/He mice): 39% | binding to plasma proteins (plasma proteins; mouse, discussion summary): 39% | tissue/whole plasma ratio, overall mean + s.e. ([1]; 24 neoplastic tissue samples (excluding cyst fluid)): 50+3% | absolute neoplastic tissue concentration, overall mean+s.e. ([1]; 24 samples, 1.67-4.5 h, normalised to 12.5 mg kg-1 oral): 5.6 +0.5 µg g-1 | Kp ([1]; liver/whole plasma, first of the two values obtained, read-out: liver/whole plasma ratio): 0.14 | Kp ([1]; liver/whole plasma, second of the two values obtained, read-out: liver/whole plasma ratio): 0.51 | Kp ([1]; tumour (spontaneous neoplastic tissue), po, neoplastic tissues, 12.5 (one dog 25) mg kg-1 oral, 1.67-4.5 h, read-out: tissue/whole plasma ratios, range): 0.14 to 0.7 | Kp ([2]; brain, 1-4 h, read-out: brain/whole plasma ratio, overall mean (s.e., n=8)): 0.42 | Kp ([2]; peripheral nerve, 1-4 h, read-out: peripheral nerve/whole plasma ratio, mean (s.e., n=7)): 0.74 | brain concentration ([2]; dog G, 1 h): 1.1 µg/g | peripheral nerve concentration ([2]; dog G, 1 h): 1.3 µg/g | plasma concentration ([2]; dog G, 1 h): 3100 ng/mL | brain concentration ([2]; dog G, 2 h): 1.5 µg/g | peripheral nerve concentration ([2]; dog G, 2 h): 3.4 µg/g | plasma concentration ([2]; dog G, 2 h): 3800 ng/mL | brain concentration ([2]; dog G, 3 h): 2.1 µg/g | plasma concentration ([2]; dog G, 3 h): 4300 ng/mL | brain concentration ([2]; dog G, 4 h): 1.1 µg/g | peripheral nerve concentration ([2]; dog G, 4 h): 4.0 µg/g | plasma concentration ([2]; dog G, 4 h): 4100 ng/mL | brain concentration ([2]; dog H, 1 h): 11.6 µg/g | peripheral nerve concentration ([2]; dog H, 1 h): 14.0 µg/g | plasma concentration ([2]; dog H, 1 h): 23100 ng/mL | brain concentration ([2]; dog H, 2 h): 10.0 µg/g | peripheral nerve concentration ([2]; dog H, 2 h): 15.5 µg/g | plasma concentration ([2]; dog H, 2 h): 22200 ng/mL | brain concentration ([2]; dog H, 3 h): 8.5 µg/g | peripheral nerve concentration ([2]; dog H, 3 h): 14.7 µg/g | plasma concentration ([2]; dog H, 3 h): 18700 ng/mL | brain concentration ([2]; dog H, 4 h): 7.9 µg/g | peripheral nerve concentration ([2]; dog H, 4 h): 15.6 µg/g | plasma concentration ([2]; dog H, 4 h): 18500 ng/mL | Kp at 4 h ([2]; brain, 25 mg kg-1, dog H, 4 h, read-out: brain/plasma ratio): 0.43 | Kp at 1 h ([2]; brain/plasma, 25 mg kg-1, dog G, 1 h, read-out: brain/plasma ratio): 0.35 | Kp at 2 h ([2]; brain/plasma, 25 mg kg-1, dog G, 2 h, read-out: brain/plasma ratio): 0.39 | Kp at 3 h ([2]; brain/plasma, 25 mg kg-1, dog G, 3 h, read-out: brain/plasma ratio): 0.49 | Kp at 4 h ([2]; brain/plasma, 25 mg kg-1, dog G, 4 h, read-out: brain/plasma ratio): 0.26 | Kp at 1 h ([2]; brain/plasma, 25 mg kg-1, dog H, 1 h, read-out: brain/plasma ratio): 0.5 | Kp at 2 h ([2]; brain/plasma, 25 mg kg-1, dog H, 2 h, read-out: brain/plasma ratio): 0.45 | Kp at 3 h ([2]; brain/plasma, 25 mg kg-1, dog H, 3 h, read-out: brain/plasma ratio): 0.45 | Kp at 3 h ([2]; peripheral nerve, 25 mg kg-1, dog H, 3 h, read-out: peripheral nerve/plasma ratio): 0.78 | Kp at 4 h ([2]; peripheral nerve, 25 mg kg-1, dog H, 4 h, read-out: peripheral nerve/plasma ratio): 0.84 | Kp at 1 h ([2]; peripheral nerve/plasma, 25 mg kg-1, dog G, 1 h, read-out: peripheral nerve/plasma ratio): 0.41 | Kp at 2 h ([2]; peripheral nerve/plasma, 25 mg kg-1, dog G, 2 h, read-out: peripheral nerve/plasma ratio): 0.9 | Kp at 4 h ([2]; peripheral nerve/plasma, 25 mg kg-1, dog G, 4 h, read-out: peripheral nerve/plasma ratio): 0.96 | Kp at 1 h ([2]; peripheral nerve/plasma, 25 mg kg-1, dog H, 1 h, read-out: peripheral nerve/plasma ratio): 0.6 | Kp at 2 h ([2]; peripheral nerve/plasma, 25 mg kg-1, dog H, 2 h, read-out: peripheral nerve/plasma ratio): 0.7 | brain/whole plasma ratio, overall mean (s.e., n=8) ([2]; two crossbred dogs, 1-4 h): 42+3% | peripheral nerve/whole plasma ratio, mean (s.e., n=7) ([2]; two crossbred dogs, 1-4 h): 74+7%
SMILES: O=C(Cn1ccnc1[N+](=O)[O-])NCc1ccccc1 [benznidazole, N-benzyl-(2-nitroimidazolyl) acetamide]
